Measurements taken from patent US12281095B2, “Pesticidally active diazine-amide compounds” (SYNGENTA CROP PROTECTION AG, priority 2019, dated 2025).

Key:
Assay type in all cases: in vivo
[1] = test system: Plutella xylostella (Diamond Back Moth); test: Example B5: Plutella xylostella (Diamond Back Moth), artificial diet, 24-well; settings: 192 h, application rate of 200 ppm, eggs, 8 days after infestation, read-out: control in at least one of the two categories (mortality or growth inhibition)
Experimental: Example B5: Plutella xylostella (Diamond Back Moth)
24-well microtiter plates with artificial diet were treated with aqueous test solutions prepared from 10′000 ppm DMSO stock solutions by pipetting. After drying, Plutella eggs were pipetted through a plastic stencil onto a gel blotting paper and the plate was closed with it. The samples were assessed for mortality and growth inhibition in comparison to untreated samples 8 days after infestation.

[2] = test system: Myzus persicae (Green Peach Aphid); test: Example B12: Myzus persicae (Green Peach Aphid), 96-well sucrose solution; settings: 120 h, application rate of 50 ppm, 5 days after infestation
Excerpt: Example B12: Myzus persicae (Green Peach Aphid)
Test compounds prepared from 10′000 ppm DMSO stock solutions were applied by a liquid handling robot into 96-well microtiter plates and mixed with a sucrose solution. Parafilm was stretched over the 96-well microtiter plate and a plastic stencil with 96 holes was placed onto the plate. Aphids were sieved into the wells directly onto the Parafilm. The infested plates were closed with a gel blotting card and a second plastic stencil and then turned upside down. The samples were assessed for mortality 5 days after infestation.

[3] = test system: Euschistus heros (Neotropical Brown Stink Bug); test: Example B2: Euschistus heros (Neotropical Brown Stink Bug), sprayed soybean leaves; settings: 120 h, application rate of 200 ppm, N2 nymphs, 5 days after infestation, read-out: control in at least one of the two categories (mortality or growth inhibition)
Experimental: Example B2: Euschistus heros (Neotropical Brown Stink Bug)
Soybean leaves on agar in 24-well microtiter plates were sprayed with aqueous test solutions prepared from 10′000 ppm DMSO stock solutions. After drying the leaves were infested with N2 nymphs. The samples were assessed for mortality and growth inhibition in comparison to untreated samples 5 days after infestation.

[4] = test system: Plutella xylostella (Diamondback Moth); test: Example B13: Plutella xylostella (Diamondback Moth), artificial diet, 96-well; settings: 216 h, application rate of 500 ppm, eggs/L1 larvae, 9 days after infestation
Experimental: Example B13: Plutella xylostella (Diamondback Moth)
96-well microtiter plates containing artificial diet were treated with aqueous test solutions, prepared from 10′000 ppm DMSO stock solutions, by a liquid handling robot. After drying, eggs (˜30 per well) were infested onto a netted lid which was suspended above the diet. The eggs hatch and L1 larvae move down to the diet. The samples were assessed for mortality 9 days after infestation.

[5] = test system: Chilo suppressalis (Striped Rice Stemborer); test: Example B4: Chilo suppressalis (Striped Rice Stemborer), artificial diet; settings: 144 h, application rate of 200 ppm, L2 larvae, 6 days after infestation, read-out: control in at least one of the three categories (mortality, anti-feedant or growth inhibition)
In short: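 Artificial diet was treated with aqueous dilutions made from 10'000 ppm DMSO stocks, dried, then infested with L2 larvae at 6–8 per well. Mortality, antifeedant effect and growth inhibition were assessed against untreated samples 6 days after infestation.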

[6] = test system: Myzus persicae (Green Peach Aphid); test: Example B8: Myzus persicae (Green Peach Aphid): Intrinsic Activity; settings: 120 h, test rate of 12 ppm, sucrose solution, 5 days after infestation
Excerpt: Example B8: Myzus persicae (Green Peach Aphid): Intrinsic Activity
Test compounds prepared from 10′000 ppm DMSO stock solutions were applied by pipette into 24-well microtiter plates and mixed with sucrose solution. The plates were closed with a stretched Parafilm. A plastic stencil with 24 holes was placed onto the plate and infested pea seedlings were placed directly on the Parafilm. The infested plate was closed with a gel blotting paper and another plastic stencil and then turned upside down. The samples were assessed for mortality 5 days after infestation.

[7] = test system: Diabrotica balteata (Corn Root Worm); test: Example B1: Diabrotica balteata (Corn Root Worm), sprayed maize sprouts; settings: 96 h, application rate of 200 ppm, L2 larvae, 4 days after infestation, read-out: control in at least one of the two categories (mortality or growth inhibition)
Experimental: Example B1: Diabrotica balteata (Corn Root Worm)
Maize sprouts placed onto an agar layer in 24-well microtiter plates were treated with aqueous test solutions prepared from 10′000 ppm DMSO stock solutions by spraying. After drying, the plates were infested with L2 larvae (6 to 10 per well). The samples were assessed for mortality and growth inhibition in comparison to untreated samples 4 days after infestation.

[8] = test system: Spodoptera littoralis (Egyptian Cotton Leaf Worm); test: Example B10: Spodoptera littoralis (Egyptian Cotton Leaf Worm), uptake by lettuce roots from agar; settings: 144 h, test rate of 12.5 ppm, compound absorbed by lettuce roots, eggs, 6 days after infestation, read-out: control in at least one of the three categories (mortality, anti-feeding, or growth inhibition)
Excerpt: Example B10: Spodoptera littoralis (Egyptian Cotton Leaf Worm)
Test compounds were applied by pipette from 10′000 ppm DMSO stock solutions into 24-well plates and mixed with agar. Lettuce seeds were placed onto the agar and the multi well plate was closed by another plate which contained also agar. After 7 days the compound was absorbed by the roots and the lettuce grew into the lid plate. The lettuce leaves were then cut off into the lid plate. Spodoptera eggs were pipetted through a plastic stencil onto a humid gel blotting paper and the lid plate was closed with it. The samples were assessed for mortality, anti-feedant effect and growth inhibition in comparison to untreated samples 6 days after infestation.

[9] = test system: Spodoptera littoralis (Egyptian Cotton Leaf Worm); test: Example B9: Spodoptera littoralis (Egyptian Cotton Leaf Worm), sprayed cotton leaf discs; settings: foliar, 72 h, application rate of 200 ppm, L1 larvae, 3 days after infestation, read-out: control in at least one of the three categories (mortality, anti-feedant or growth inhibition)

CC(NC(=O)c1cc(C(F)(F)F)nc(C2(C#N)CC2)c1)c1nccnc1-c1ncc(OCC(F)(F)F)cn1 (stereo not shown) [P34, 2-(1-cyanocyclopropyl)-N-[1-[3-[5-(2,2,2-trifluoroethoxy)pyrimidin-2-yl]pyrazin-2-yl]ethyl]-6-(trifluoromethyl)pyridine-4-carboxamide]
≥ 80%: percent control (mortality or growth inhibition) at 200 ppm [1] | mortality at 50 ppm [2] | percent control (mortality or growth inhibition) at 200 ppm [3] | mortality at 500 ppm [4] | percent control (mortality, anti-feedant effect or growth inhibition) at 200 ppm [5] | mortality at 12 ppm [6] | percent control (mortality or growth inhibition) at 200 ppm [7] | percent control (mortality, anti-feeding or growth inhibition) at 12.5 ppm [8] | percent control (mortality, anti-feedant effect or growth inhibition) at 200 ppm [9]

CC(NC(=O)c1cc(C(F)(F)F)nc(C2(C#N)CC2)c1)c1nccnc1-c1ncc(OC(F)F)cn1 (stereo not shown) [P36, 2-(1-cyanocyclopropyl)-N-[1-[3-[5-(difluoromethoxy)pyrimidin-2-yl]pyrazin-2-yl]ethyl]-6-(trifluoromethyl)pyridine-4-carboxamide]
≥ 80%: percent control (mortality or growth inhibition) at 200 ppm [1] | mortality at 50 ppm [2] | percent control (mortality or growth inhibition) at 200 ppm [3] | mortality at 500 ppm [4] | percent control (mortality, anti-feedant effect or growth inhibition) at 200 ppm [5] | percent control (mortality or growth inhibition) at 200 ppm [7] | percent control (mortality, anti-feeding or growth inhibition) at 12.5 ppm [8] | percent control (mortality, anti-feedant effect or growth inhibition) at 200 ppm [9]

CC(NC(=O)c1cc(C(F)(F)F)cc(C(C)(C)C#N)c1)c1nccnc1-c1ncc(OCC(F)(F)F)cn1 (stereo not shown) [P47, 3-(1-cyano-1-methyl-ethyl)-N-[1-[3-[5-(2,2,2-trifluoroethoxy)pyrimidin-2-yl]pyrazin-2-yl]ethyl]-5-(trifluoromethyl)benzamide]
≥ 80%: percent control (mortality or growth inhibition) at 200 ppm [1] | percent control (mortality or growth inhibition) at 200 ppm [3] | percent control (mortality, anti-feedant effect or growth inhibition) at 200 ppm [5] | mortality at 12 ppm [6] | percent control (mortality or growth inhibition) at 200 ppm [7] | percent control (mortality, anti-feedant effect or growth inhibition) at 200 ppm [9]

CC(NC(=O)c1cc(C(F)(F)F)cc(C2(C#N)CC2)c1)c1nccnc1-c1ccc(C#N)cn1 (stereo not shown) [P25, 3-(1-cyanocyclopropyl)-N-[1-[3-(5-cyano-2-pyridyl)pyrazin-2-yl]eth-yl]-5-(trifluoromethyl)benzamide]
≥ 80%: percent control (mortality or growth inhibition) at 200 ppm [1] | mortality at 50 ppm [2] | mortality at 500 ppm [4] | percent control (mortality, anti-feedant effect or growth inhibition) at 200 ppm [5] | percent control (mortality or growth inhibition) at 200 ppm [7] | percent control (mortality, anti-feedant effect or growth inhibition) at 200 ppm [9]

CC(NC(=O)c1cc(C(F)(F)F)cc(C2(C#N)CC2)c1)c1nccnc1-c1ncc(OC(F)F)cn1 (stereo not shown) [P32, 3-(1-cyanocyclopropyl)-N-[1-[3-[5-(difluoromethoxy)pyrimidin-2-yl]pyrazin-2-yl]ethyl]-5-(trifluoromethyl)benzamide]
≥ 80%: percent control (mortality or growth inhibition) at 200 ppm [1] | mortality at 50 ppm [2] | percent control (mortality or growth inhibition) at 200 ppm [3] | mortality at 500 ppm [4] | percent control (mortality, anti-feedant effect or growth inhibition) at 200 ppm [5] | mortality at 12 ppm [6] | percent control (mortality or growth inhibition) at 200 ppm [7] | percent control (mortality, anti-feeding or growth inhibition) at 12.5 ppm [8] | percent control (mortality, anti-feedant effect or growth inhibition) at 200 ppm [9]

CC(NC(=O)c1cc(C(F)(F)F)cc(C2(C#N)CC2)c1)c1nccnc1-c1ncc(OCC(F)(F)F)cn1 (stereo not shown) [P2, 3-(1-cyanocyclopropyl)-N-[1-[3-[5-(2,2,2-trifluoroethoxy)pyrimidin-2-yl]pyrazin-2-yl]ethyl]-5-(trifluoromethyl)benzamide]
≥ 80%: percent control (mortality or growth inhibition) at 200 ppm [1] | percent control (mortality or growth inhibition) at 200 ppm [3] | percent control (mortality, anti-feedant effect or growth inhibition) at 200 ppm [5] | mortality at 12 ppm [6] | percent control (mortality or growth inhibition) at 200 ppm [7] | percent control (mortality, anti-feedant effect or growth inhibition) at 200 ppm [9]

CC(NC(=O)c1cc(C(F)(F)F)nc(C2(C#N)CC2)c1)c1nccnc1-c1ncc(OCC(F)F)cn1 (stereo not shown) [P40, 2-(1-cyanocyclopropyl)-N-[1-[3-[5-(2,2-difluoroethoxy)pyrimidin-2-yl]pyrazin-2-yl]ethyl]-6-(trifluoromethyl)pyridine-4-carboxamide]
≥ 80%: percent control (mortality or growth inhibition) at 200 ppm [1] | mortality at 50 ppm [2] | percent control (mortality or growth inhibition) at 200 ppm [3] | mortality at 500 ppm [4] | percent control (mortality, anti-feedant effect or growth inhibition) at 200 ppm [5] | mortality at 12 ppm [6] | percent control (mortality or growth inhibition) at 200 ppm [7] | percent control (mortality, anti-feeding or growth inhibition) at 12.5 ppm [8] | percent control (mortality, anti-feedant effect or growth inhibition) at 200 ppm [9]

CC(NC(=O)c1cc(C(F)(F)F)cc(C(C)(C)C#N)c1)c1nccnc1-c1ccc(C#N)cn1 (stereo not shown) [P9, 3-(1-cyano-1-methyl-ethyl)-N-[1-[3-(5-cyano-2-pyridyl)pyrazin-2-yl]ethyl]-5-(trifluoromethyl)benzamide]
≥ 80%: percent control (mortality or growth inhibition) at 200 ppm [1] | percent control (mortality, anti-feedant effect or growth inhibition) at 200 ppm [5] | mortality at 12 ppm [6] | percent control (mortality or growth inhibition) at 200 ppm [7] | percent control (mortality, anti-feedant effect or growth inhibition) at 200 ppm [9]

CC(NC(=O)c1cc(C2CC2)cc(C(F)(F)F)c1)c1nccnc1-c1ncc(OCC(F)F)cn1 (stereo not shown) [P37, 3-cyclopropyl-N-[1-[3-[5-(2,2-difluoroethoxy)pyrimidin-2-yl]pyrazin-2-yl]ethyl]-5-(trifluoromethyl)benzamide]
≥ 80%: percent control (mortality or growth inhibition) at 200 ppm [1] | mortality at 500 ppm [4] | percent control (mortality, anti-feedant effect or growth inhibition) at 200 ppm [5] | mortality at 12 ppm [6] | percent control (mortality or growth inhibition) at 200 ppm [7] | percent control (mortality, anti-feedant effect or growth inhibition) at 200 ppm [9]
